According to patent publication US11633459B2, “GIP derivatives and uses thereof” (priority 2018, dated 2023):

Experiments:
human GIP receptor = molecular target: T1, human GIP receptor (Homo sapiens, UniProt P48546); experiment: In vitro potency, CRE luciferase reporter gene assay, whole BHK cells expressing human GIP receptor; type: cell-based; details: 0.2% HSA
T1 construct: expressed in transfected cells; host or cells: BHK cells (parent line BHKTS13), clone BHK CRE luc2P hGIPR clone #5
T1 sequence (P48546 22-466): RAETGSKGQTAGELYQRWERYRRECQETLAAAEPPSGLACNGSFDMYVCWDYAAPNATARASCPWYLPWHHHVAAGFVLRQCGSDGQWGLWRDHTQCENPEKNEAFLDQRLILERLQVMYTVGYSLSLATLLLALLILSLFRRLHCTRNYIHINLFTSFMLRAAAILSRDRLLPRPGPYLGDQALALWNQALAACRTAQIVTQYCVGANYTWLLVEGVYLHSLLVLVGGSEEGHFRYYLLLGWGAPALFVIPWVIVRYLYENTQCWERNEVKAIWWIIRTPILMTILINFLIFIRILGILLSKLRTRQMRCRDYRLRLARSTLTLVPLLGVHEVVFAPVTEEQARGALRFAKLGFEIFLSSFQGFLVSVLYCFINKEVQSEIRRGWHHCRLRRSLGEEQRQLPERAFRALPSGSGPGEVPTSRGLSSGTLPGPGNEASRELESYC
Procedure: In Vitro Potency (CRE Luciferase; Whole Cells)
The in vitro potency is the measure of human GIP, GLP-1 or glucagon receptor activation, respectively, in a whole cell assay.
In vitro potency was determined by measuring the response of the human GIP, GLP-1 or glucagon receptor in a reporter gene assay in individual cell lines. […] When the respective receptor is activated it results in the production of cAMP, which in turn results in the luciferase protein being expressed. When assay incubation is completed the luciferase substrate (luciferin) is added and the enzyme converts luciferin to oxyluciferin to produce bioluminescence. The luminescence is measured as the readout for the assay.
The cells were derived from a clone containing the CRE luciferase element and were established by further transfection with the respective receptor to obtain the current clone.
The cells were cultured at 5% CO2 in Cell Culture Medium. They were aliquoted and stored in liquid nitrogen. The cells were kept in passage and were seeded out the day before each assay.
The Assay Buffer consisted of 1% ovalbumin and 0.1% Pluronic F-68 in Assay Medium with the addition of human serum albumin at twice the indicated concentrations.
1) Cells were plated at 5000 cells/well and incubated overnight.
2) Cells were washed three times in PBS.
3) Assay Medium (50 μl aliquot) with or without serum albumin was added to each well in the assay plate.
4) Stocks of the test compounds and reference compounds were diluted to a concentration of 0.2 μM in Assay Buffer. […] 8) The cells were washed three times with PBS plus some liquid in each well. 9) A 100 μl aliquot of steadylite plus reagent was added to each well of the assay plate (reagent was light sensitive). 10) Each assay plate was covered with aluminum foil to protect it from light and shaken for 30 min at room temperature. 11) Each assay plate was read in a microtiter plate reader. Calculations and Results
The data from the microtiter plate reader was transferred to GraphPad Prism software. The software performs a non-linear regression (log(agonist) vs response).
A minimum of two replicates was measured for each sample. The reported values are averages of the replicates.

in vivo = details: female, Göttingen, minipig, iv, 5 nmol/kg
Procedure: Pharmacokinetic Study in Minipigs
The purpose of this study is to determine the half-life in vivo of the derivatives of the present invention after i.v. administration to minipigs, i.e. the prolongation of their time in the body and thereby their time of action. This is done in a pharmacokinetic (PK) study, where the terminal half-life of the derivative in question is determined. By terminal half-life is generally meant the period of time it takes to halve a certain plasma concentration, measured after the initial distribution phase.
Female Göttingen minipigs were obtained from Ellegaard Göttingen Minipigs (Dalmose, Denmark) approximately 7-14 months of age and weighing from approximately 16-35 kg were used in the studies. The minipigs were housed individually and fed restrictedly once daily with SDS minipig diet (Special Diets Services, Essex, UK).
After at 3 weeks of acclimatisation two permanent central venous catheters were implanted in vena cava caudalis in each animal. The animals were allowed 1 week recovery after the surgery, and were then used for repeated pharmacokinetic studies with a suitable wash-out period between successive derivative dosing.
Blood samples (for example 0.8 ml) were collected in EDTA buffer (8 mM) and then centrifuged at 4° C. and 1942G for 10 minutes.
Individual plasma concentration-time profiles were analysed by a non-compartmental model in Phoenix WinNonLin ver. […] (Pharsight Inc., Mountain View, Calif., USA), and the resulting terminal half-lives (harmonic mean) determined.

- EC50 (human GIP receptor): 0.0209 nM
- half-life (in vivo): 79 h
Structure (SMILES): CCCC[C@H](NC(=O)[C@H](C)NC(=O)[C@@H](NC(=O)[C@H](CO)NC(=O)[C@H](Cc1ccc(O)cc1)NC(=O)[C@H](CC(=O)O)NC(=O)[C@H](CO)NC(=O)[C@@H](NC(=O)[C@H](Cc1ccccc1)NC(=O)[C@@H](NC(=O)CNC(=O)[C@H](CCC(=O)O)NC(=O)C(C)(C)NC(=O)[C@@H](Cc1ccc(O)cc1)NC(C)=O)[C@@H](C)O)[C@@H](C)CC)[C@@H](C)CC)C(=O)N[C@@H](CC(=O)O)C(=O)N[C@@H](CCCCN)C(=O)N[C@H](C(=O)N[C@@H](CCCNC(=N)N)C(=O)N[C@@H](CCC(N)=O)C(=O)N[C@@H](CCC(N)=O)C(=O)N[C@@H](CC(=O)O)C(=O)N[C@@H](Cc1ccccc1)C(=O)N[C@H](C(=O)N[C@@H](CCCCNC(=O)CC[C@H](NC(=O)CC[C@H](NC(=O)CC[C@H](NC(=O)CCCCCCCCCCCCCCCCC(=O)O)C(=O)O)C(=O)O)C(=O)O)C(=O)N[C@@H](Cc1c[nH]c2ccccc12)C(=O)N[C@@H](CC(C)C)C(=O)N[C@@H](CC(C)C)C(=O)N[C@@H](C)C(=O)N[C@@H](CCC(N)=O)C(=O)N[C@@H](CCCCN)C(=O)NCC(=O)O)C(C)C)[C@@H](C)CC [Compound 5, N{1}-acetyl, N{Epsilon-24}-[(4S)-4-carboxy-4-[[(4S)-4-carboxy-4-[[(4S)-4-carboxy-4-(17-carboxyheptadecanoylamino)butanoyl]amino]butanoyl]amino]butanoyl]-[D-Tyr1,Aib2,Nle14,Arg18,Lys24]-hGIP(1-31)]
